The source made the active and inactive calls.
Tests used:
[1] = test system: Salmonella enterica; test: Antibacterial activity against Salmonella enterica 15455 assessed as inhibition of bacterial growth incubated for 16 to 20 hrs in presence of human serum; assay type: functional; conditions: time 16-20 hrs
[2] = test system: Rhizopus arrhizus; test: Fungicidal activity against Rhizopus oryzae 34550 assessed as inhibition of fungal growth incubated for 16 to 20 hrs in presence of human serum; assay type: functional; conditions: time 16-20 hrs
[3] = test system: Rhizopus arrhizus; test: Fungicidal activity against Rhizopus oryzae 34550 assessed as inhibition of fungal growth incubated for 72 hrs; assay type: functional
[4] = test system: Salmonella typhimurium; test: Antibacterial activity against Salmonella typhimurium DT104 assessed as inhibition of bacterial growth incubated for 16 to 20 hrs in presence of human serum; assay type: functional, Salmonella enterica subsp. enterica serovar Typhimurium; conditions: Salmonella enterica, time 16-20 hrs
[5] = test system: Klebsiella pneumoniae; test: Bactericidal activity against Klebsiella pneumoniae BAA 2473 assessed as inhibition of bacterial growth incubated for 16 to 20 hrs; assay type: functional; conditions: time 16-20 hrs
[6] = test system: Acinetobacter baumannii; test: Antibacterial activity against Acinetobacter baumannii 10591 assessed as inhibition of bacterial growth incubated for 16 to 20 hrs; assay type: functional; conditions: time 16-20 hrs
[7] = test system: Klebsiella pneumoniae; test: Antibacterial activity against Klebsiella pneumoniae 10692 assessed as inhibition of bacterial growth incubated for 16 to 20 hrs; assay type: functional; conditions: time 16-20 hrs
[8] = test system: Salmonella enterica; test: Bactericidal activity against Salmonella enterica 15455 assessed as inhibition of bacterial growth incubated for 16 to 20 hrs; assay type: functional; conditions: time 16-20 hrs
[9] = test system: Pseudomonas aeruginosa; test: Bactericidal activity against Pseudomonas aeruginosa 19660 assessed as inhibition of bacterial growth incubated for 16 to 20 hrs in presence of human serum; assay type: functional; conditions: time 16-20 hrs
[10] = test system: Klebsiella pneumoniae; test: Bactericidal activity against Klebsiella pneumoniae TL 297 assessed as inhibition of bacterial growth incubated for 16 to 20 hrs in presence of human serum; assay type: functional; conditions: time 16-20 hrs
[11] = test system: Salmonella typhimurium; test: Antibacterial activity against Salmonella typhimurium DT104 assessed as inhibition of bacterial growth incubated for 16 to 20 hrs; assay type: functional, Salmonella enterica subsp. enterica serovar Typhimurium; conditions: Salmonella enterica, time 16-20 hrs
[12] = test system: Salmonella enterica; test: Bactericidal activity against Salmonella enterica 15455 assessed as inhibition of bacterial growth incubated for 16 to 20 hrs in presence of human serum; assay type: functional; conditions: time 16-20 hrs
[13] = test system: Yersinia enterocolitica; test: Bactericidal activity against Yersinia enterocolitica 13999 assessed as inhibition of bacterial growth incubated for 16 to 20 hrs; assay type: functional; conditions: time 16-20 hrs
[14] = test system: Klebsiella oxytoca; test: Bactericidal activity against Klebsiella oxytoca 13985 assessed as inhibition of bacterial growth incubated for 16 to 20 hrs; assay type: functional; conditions: time 16-20 hrs
[15] = test system: Enterococcus faecalis; test: Bactericidal activity against Enterococcus faecalis 10066 assessed as inhibition of bacterial growth incubated for 16 to 20 hrs; assay type: functional; conditions: time 16-20 hrs
[16] = test system: Acinetobacter baumannii; test: Antibacterial activity against Acinetobacter baumannii 10591 assessed as inhibition of bacterial growth incubated for 16 to 20 hrs in presence of human serum; assay type: functional; conditions: time 16-20 hrs
[17] = test system: Klebsiella aerogenes; test: Antibacterial activity against Enterobacter aerogenes 15630 assessed as inhibition of bacterial growth incubated for 16 to 20 hrs; assay type: functional; conditions: time 16-20 hrs
[18] = test system: Vibrio vulnificus; test: Bactericidal activity against Vibrio vulnificus 204 assessed as inhibition of bacterial growth incubated for 16 to 20 hrs in presence of human serum; assay type: functional; conditions: time 16-20 hrs
[19] = test system: Escherichia coli; test: Bactericidal activity against Escherichia coli 10675 assessed as inhibition of bacterial growth incubated for 16 to 20 hrs; assay type: functional; conditions: time 16-20 hrs
[20] = test system: Vibrio vulnificus; test: Bactericidal activity against Vibrio vulnificus 204 assessed as inhibition of bacterial growth incubated for 16 to 20 hrs; assay type: functional; conditions: time 16-20 hrs
[21] = test system: Salmonella enterica; test: Antibacterial activity against Salmonella enterica 15455 assessed as inhibition of bacterial growth incubated for 16 to 20 hrs; assay type: functional; conditions: time 16-20 hrs
[22] = test system: Salmonella typhimurium; test: Bactericidal activity against Salmonella typhimurium DT104 assessed as inhibition of bacterial growth incubated for 16 to 20 hrs; assay type: functional, Salmonella enterica subsp. enterica serovar Typhimurium; conditions: Salmonella enterica, time 16-20 hrs
[23] = test system: Enterococcus faecium; test: Antibacterial activity against Enterococcus faecium 10067 assessed as inhibition of bacterial growth incubated for 16 to 20 hrs; assay type: functional; conditions: time 16-20 hrs
[24] = test system: Salmonella typhimurium; test: Bactericidal activity against Salmonella typhimurium DT104 assessed as inhibition of bacterial growth incubated for 16 to 20 hrs in presence of human serum; assay type: functional, Salmonella enterica subsp. enterica serovar Typhimurium; conditions: Salmonella enterica, time 16-20 hrs
[25] = test system: Enterococcus faecium; test: Antibacterial activity against Enterococcus faecium 10067 assessed as inhibition of bacterial growth incubated for 16 to 20 hrs in presence of human serum; assay type: functional; conditions: time 16-20 hrs
[26] = test system: Escherichia coli; test: Antibacterial activity against Escherichia coli 10675 assessed as inhibition of bacterial growth incubated for 16 to 20 hrs; assay type: functional; conditions: time 16-20 hrs
[27] = test system: Escherichia coli; test: Antibacterial activity against Escherichia coli 10675 assessed as inhibition of bacterial growth incubated for 16 to 20 hrs in presence of human serum; assay type: functional; conditions: time 16-20 hrs
[28] = test system: Klebsiella pneumoniae; test: Antibacterial activity against Klebsiella pneumoniae TL 297 assessed as inhibition of bacterial growth incubated for 16 to 20 hrs in presence of human serum; assay type: functional; conditions: time 16-20 hrs
[29] = test system: Vibrio vulnificus; test: Antibacterial activity against Vibrio vulnificus 204 assessed as inhibition of bacterial growth incubated for 16 to 20 hrs; assay type: functional; conditions: time 16-20 hrs
[30] = test system: Staphylococcus aureus; test: Antibacterial activity against Staphylococcus aureus 10780 assessed as inhibition of bacterial growth incubated for 16 to 20 hrs; assay type: functional; conditions: time 16-20 hrs
[31] = test system: Klebsiella pneumoniae; test: Antibacterial activity against Klebsiella pneumoniae BAA 2473 assessed as inhibition of bacterial growth incubated for 16 to 20 hrs; assay type: functional; conditions: time 16-20 hrs
[32] = test system: Pseudomonas aeruginosa; test: Bactericidal activity against Pseudomonas aeruginosa 19660 assessed as inhibition of bacterial growth incubated for 16 to 20 hrs; assay type: functional; conditions: time 16-20 hrs
[33] = test system: Pseudomonas aeruginosa; test: Antibacterial activity against Pseudomonas aeruginosa 19660 assessed as inhibition of bacterial growth incubated for 16 to 20 hrs; assay type: functional; conditions: time 16-20 hrs
[34] = test system: Klebsiella pneumoniae; test: Bactericidal activity against Klebsiella pneumoniae 10692 assessed as inhibition of bacterial growth incubated for 16 to 20 hrs; assay type: functional; conditions: time 16-20 hrs
[35] = test system: Staphylococcus aureus; test: Bactericidal activity against Staphylococcus aureus 10780 assessed as inhibition of bacterial growth incubated for 16 to 20 hrs; assay type: functional; conditions: time 16-20 hrs
[36] = test system: Staphylococcus haemolyticus; test: Antibacterial activity against Staphylococcus haemolyticus 15237 assessed as inhibition of bacterial growth incubated for 16 to 20 hrs; assay type: functional; conditions: time 16-20 hrs
[37] = test system: Enterococcus faecalis; test: Antibacterial activity against Enterococcus faecalis 10066 assessed as inhibition of bacterial growth incubated for 16 to 20 hrs; assay type: functional; conditions: time 16-20 hrs
[38] = test system: Acinetobacter baumannii; test: Bactericidal activity against Acinetobacter baumannii 10591 assessed as inhibition of bacterial growth incubated for 16 to 20 hrs; assay type: functional; conditions: time 16-20 hrs
[39] = test system: Acinetobacter baumannii; test: Bactericidal activity against Acinetobacter baumannii 10591 assessed as inhibition of bacterial growth incubated for 16 to 20 hrs in presence of human serum; assay type: functional; conditions: time 16-20 hrs
[40] = test system: Rhizopus arrhizus; test: Antifungal activity against Rhizopus oryzae 34550 assessed as inhibition of fungal growth incubated for 16 to 20 hrs; assay type: functional; conditions: time 16-20 hrs
[41] = test system: Staphylococcus haemolyticus; test: Bactericidal activity against Staphylococcus haemolyticus 15237 assessed as inhibition of bacterial growth incubated for 16 to 20 hrs; assay type: functional; conditions: time 16-20 hrs
[42] = test system: Klebsiella aerogenes; test: Bactericidal activity against Enterobacter aerogenes 15630 assessed as inhibition of bacterial growth incubated for 16 to 20 hrs; assay type: functional; conditions: time 16-20 hrs
[43] = test system: Pseudomonas aeruginosa; test: Antibacterial activity against Pseudomonas aeruginosa 19660 assessed as inhibition of bacterial growth incubated for 16 to 20 hrs in presence of human serum; assay type: functional; conditions: time 16-20 hrs
[44] = test system: Vibrio vulnificus; test: Antibacterial activity against Vibrio vulnificus 204 assessed as inhibition of bacterial growth incubated for 16 to 20 hrs in presence of human serum; assay type: functional; conditions: time 16-20 hrs
[45] = test system: Klebsiella oxytoca; test: Bactericidal activity against Klebsiella oxytoca 13985 assessed as inhibition of bacterial growth incubated for 16 to 20 hrs in presence of human serum; assay type: functional; conditions: time 16-20 hrs
[46] = test system: Klebsiella oxytoca; test: Antibacterial activity against Klebsiella oxytoca 13985 assessed as inhibition of bacterial growth incubated for 16 to 20 hrs; assay type: functional; conditions: time 16-20 hrs
[47] = test system: Klebsiella oxytoca; test: Antibacterial activity against Klebsiella oxytoca 13985 assessed as inhibition of bacterial growth incubated for 16 to 20 hrs in presence of human serum; assay type: functional; conditions: time 16-20 hrs
[48] = test system: Enterococcus faecium; test: Bactericidal activity against Enterococcus faecium 10067 assessed as inhibition of bacterial growth incubated for 16 to 20 hrs; assay type: functional; conditions: time 16-20 hrs
[49] = test system: Enterococcus faecium; test: Bactericidal activity against Enterococcus faecium 10067 assessed as inhibition of bacterial growth incubated for 16 to 20 hrs in presence of human serum; assay type: functional; conditions: time 16-20 hrs
[50] = test system: Escherichia coli; test: Bactericidal activity against Escherichia coli 10675 assessed as inhibition of bacterial growth incubated for 16 to 20 hrs in presence of human serum; assay type: functional; conditions: time 16-20 hrs
[51] = test system: Yersinia enterocolitica; test: Antibacterial activity against Yersinia enterocolitica 13999 assessed as inhibition of bacterial growth incubated for 16 to 20 hrs; assay type: functional; conditions: time 16-20 hrs
[52] = test system: Klebsiella pneumoniae; test: Antimicrobial activity against drug-resistant Klebsiella pneumoniae BAA 2473 infected in C57BL/6 mouse assessed as reduction in bacterial load at 5 mg/kg, po administered for 2 hrs and measured at 24 hrs; assay type: functional, organism-based; conditions: time 26.0 hrs

C[C@@H](O)[C@H]1C(=O)N2C(C(=O)O)=C(S[C@@H]3CN[C@H](C(=O)N(C)C)C3)[C@H](C)[C@H]12 [MEROPENEM]
6.25 µM: MIC [6] | MBC [9] | MBC [32] | MBC [38] | MBC [39] | MBC [42]
< 1.56 µM: MBC [8] | MIC [11] | MBC [13] | MIC [21] | MIC [36] | MBC [41] | MIC [51]
< 0.369 µM: MIC [4]
400 µM: MBC [5] | MBC [10]
0.2 µM: MIC [7] | MBC [19] | MIC [26] | MBC [34]
0.1 µM: MBC [14] | MIC [17] | MIC [27] | MBC [50]
100 µM: MFC [2] | MBC [15] | MIC [25] | MBC [48] | MBC [49]
200 µM: MIC [28]
< 0.39 µM: MIC [1] | MBC [12] | MBC [18] | MBC [20] | MBC [24] | MIC [29] | MIC [44] | MBC [45] | MIC [46] | MIC [47]
0.78 µM: MIC [30]
800 µM: MIC [31]
50 µM: MIC [23]
> 100 µM: MFC [3] | MBC [22] | MIC [40]
3.13 µM: MIC [16] | MIC [33] | MBC [35] | MIC [43]
12.5 µM: MIC [37]

C[C@H]1c2cccc(O)c2C(=O)C2=C(O)[C@]3(O)C(=O)C(C(N)=O)=C(O)[C@@H](N(C)C)[C@@H]3[C@@H](O)[C@@H]21 [DOXYCYCLINE ANHYDROUS]
0.39 µM: MIC [25]
50 µM: MIC [31]
6.25 µM: MIC [1] | MBC [9] | MIC [11] | MBC [15] | MBC [22] | MBC [39] | MIC [43] | MIC [46] | MIC [47] | MBC [48]
200 µM: MBC [14] | MBC [42]
inactive: Activity [52]
> 100 µM: MFC [3] | MBC [8] | MBC [12] | MBC [24] | MIC [40]
100 µM: MBC [5] | MBC [19] | MBC [34] | MBC [45] | MBC [50]
12.5 µM: MFC [2] | MIC [4] | MBC [35] | MBC [49]
0.78 µM: MIC [6]
< 0.39 µM: MBC [18] | MBC [20] | MIC [29] | MIC [44]
0.2 µM: MIC [23] | MIC [30]
25 µM: MBC [10] | MIC [28]
1.56 µM: MIC [16] | MBC [38]
3.13 µM: MIC [7] | MIC [17] | MIC [21] | MIC [26] | MIC [27] | MIC [51]
< 1.56 µM: MBC [13] | MIC [36] | MIC [37] | MBC [41]
